Tested on: cardiomyocyte network
Test: Simultaneous measurement of extracellular potential (FP) and contractile force (optical imaging of probe microparticles) in cardiomyocyte network
Assay type: cell-based
Source text: FIG. 43 is a schematic diagram showing an example of a system configuration of the present invention to simultaneously measure the mechanical properties and electrical properties of cardiomyocytes. The present system includes (1) a cellular network chip that can be used for culturing a cell population, includes a plurality of micro-electrodes disposed on a substrate and can be used for acquiring cellular potential data of a small area of the population; (2) a chip mounter for mounting the chip and joining electrically with cell-stimulating and/or cellular potential measuring system; (3) an environmental control vessel which can be used to control the environment such as temperature, humidity, oxygen concentration and carbon dioxide concentration of the cell population being cultured; (4) a micro multi-electrode potential measurement system that can give stimulation to a specific cell of a cardiomyocyte population, and allows simultaneous continuous measurements of cellular potentials of various small areas in the cell population; (5) one or more position-coordinate probe microparticles configured to measure changes in shape of myocardial cells and allow easy identification of cardiomyocytes using a plastic, polymer, glass or metal microparticles such as polystyrene microparticles, glass microparticles or gold microparticles of sizes from at minimum about 0.1, 0.2 μm, 0.3 μm, 0.4 μm, 0.5 μm, 0.6 μm, 0.7 μm, or preferably about 0.8 μm, more preferably about 0.9 μm, or most preferably about 1 μm, to at most about 500 μm, 400 μm, 300 μm, preferably about 200 μm, more preferably about 100 μm or most preferably about 50 μm, wherein the particles are disposed in the cell population by mixing them on the surface of the cardiomyocyte population in the cell network chip or in the cell population and culturing them; (6) an optical image capturing system for optically measuring the microparticles, wherein the system includes a light source, an optical microscope and an image-capturing camera to capture the images of the microparticles; and (7) a computer system for image analysis, cellular potential analysis, stimulus control and/or integrated data acquisition, wherein the system is capable of measurements of cellular potential and analysis of waveforms of the potential, measurements of cell displacements by image analysis and feedback stimulation based on the analysis results. In the measurements using the device system, as for the stimulus to cause depolarization of the myocardial cells, the stimulus can be provided by selecting mainly from three means, i.e., (A) measurements using conduction of autonomous pulsation of the cardiomyocyte population, (B) measurements of conduction by providing a forced electrical stimulation from outside to a specific cell in the cardiomyocyte population and (C) measurements of conduction by providing a feed-back stimulus at a specific timing to meet the relationship of the delay time and the value of the cellular potential based on the cell voltage measured data to the specific cells in the cardiomyocyte population.
FIG. 44 is an example of a data acquisition monitor screen showing an example of data obtained from an example of a system configuration of the present invention to simultaneously measure the mechanical properties and the electrical properties of cardiomyocytes. In a setting of this example, a large number of polystyrene microparticles are placed on the surface of the cardiomyocyte population, a probe-particle displacement-observation window for five of the polystyrene microparticles selected as probes is set, and the center of gravity of the window moves with the movement of the microparticles in the window, thereby displacement of the particular probe microparticles can be measured continuously as a change in vector time in the directions of the X-axis and Y-axis. […]

[1] = drug concentration of 100 nM, FIG. 52B

## COc1ccc(CCN(C)CCCC(C#N)(c2ccc(OC)c(OC)c2)C(C)C)cc1OC (stereo not drawn) [verapamil]
1000 nM, FIG. 52A
  electrophysiological excitation: does not occur
  mechanical contraction: mechanical contraction does not occur
Administration of 10 nM, FIG. 54B
  angle fluctuation against decrease in contractile force: barely increases
Administration of 100 nM, FIG. 54B
  fluctuation of contractile direction in the angular direction: rapid fluctuation
[1]
  contractile force: disappear rapidly
  electrical firing of excitatory conduction of cells: maintained

Reference: patent US20140349332A1, “METHOD AND DEVICE FOR EXAMINING MYOCARDIAL TOXICITY AND EVALUATING CARDIOMYOCYTE” (priority 2011, published 2014)
